# Test results: patent US9890185B2, “Urea derivatives useful as kinase inhibitors” (Respivert Limited, priority 2013, dated 2018)
# Tests used:
# c-Src = c-Src (Homo sapiens (Human), UniProt P12931); assay: c-Src enzyme inhibition (FRET, Z-LYTE); type: biochemical
# Outline: (§1)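 c-Src (3000 ng/mL) or Syk (2000 ng/mL) stock was preincubated with compound (4–0.004 μg/mL stocks) for 2 hr at RT. FRET peptide (8 μM stock) and ATP (800 μM c-Src, 60 μM Syk, as added) were then added for 1 hr, followed by 1 hr protease development. The coumarin/fluorescein emission ratio gave % inhibition and IC50.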
# PBMCs [1] = assay: IFN gamma release in CD3/CD28 stimulated PBMC cells (assay c); type: cell-based; details: Homo sapiens, read-out: IC50 Values for Inhibition of Cytokine Release, PBMCs IFNγ
# Procedure: (§2) PBMCs from healthy subjects are separated from whole blood using a density gradient (Lymphoprep, Axis-Shield Healthcare). Cells are added to a 96 well plate pre-coated with a mixture of CD3/CD28 monoclonal antibodies (0.3 μg/mL eBioscience and 3 μg/mL BD Pharmingen respectively). Compound at the desired concentration is then added to the wells and the plate left for 3 days under normal tissue culture conditions. Supernatants are harvested and IL-2 and IFN gamma release determined by Sandwich ELISA (Duo-set, R&D System). The IC50 is determined from the dose response curve.
# PBMCs [2] = assay: Cell mitosis assay in PBMCs (assay g); type: cell-based; details: Homo sapiens, PBMC, test compound 5 μg/mL
# Outline: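 Human PBMCs from healthy donors, stimulated with 2% PHA for 48 hr, then exposed to test compounds for 20 hr, with demecolcine (0.1 μg/mL) added 2 hr before harvest. Cells fixed/permeabilised, stained for phospho-histone 3 and propidium iodide, and read by flow cytometry gated on lymphocytes. % mitosis inhibition vs 0.5% DMSO vehicle.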
# [3] = target: p38 MAPKα isoform (MAPK14) (Homo sapiens (Human), UniProt Q16539); assay: p38 MAPKα enzyme inhibition (FRET, Z-LYTE, Method 2); type: biochemical
# Outline: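 Z-LYTE FRET: p38 MAPKα (80 ng/mL for Method 1, 200 ng/mL for Method 2, pre-dilution) preincubated 2 hr RT with compound (4–0.004 μg/mL solutions), activity read via MAPKAP-K2 phosphorylation after 1 hr RT and 1 hr protease development. Coumarin/fluorescein ratio gives phosphorylation; % inhibition versus uninhibited control, IC50 from concentration-response curve.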
# PBMCs [4] = assay: LPS-induced IL-8 release in PBMC cells (assay b); type: cell-based, human; details: Homo sapiens, PBMC; LPS-stimulated PBMCs; read-out: IC50 Values for Inhibition of Cytokine Release, PBMCs IL-8
# Outline: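 Human PBMCs from healthy donors, isolated by density gradient, were pretreated with compound for 2 h and then stimulated with 1 ng/mL LPS (E. coli 0111:B4) for 24 h at 37° C, 5% CO2. Supernatant IL-8 and TNFα were measured by sandwich ELISA, and IC50 was taken from the dose-response curve.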
# PBMCs [5] = assay: IL-2 release in CD3/CD28 stimulated PBMC cells (assay c); type: cell-based; details: Homo sapiens, read-out: IC50 Values for Inhibition of Cytokine Release, PBMCs IL-2
# Procedure: as §2
# Syk = Syk (Homo sapiens (Human), UniProt P43405); assay: Syk enzyme inhibition (FRET, Z-LYTE); type: biochemical
# Outline: as §1
# GSK 3α = GSK 3α (Homo sapiens (Human), UniProt P49840); assay: GSK 3α enzyme inhibition (FRET, Z-LYTE, Method 2); type: biochemical; details: read-out: IC50 Values for Enzyme Inhibition, GSK3α
# Outline: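 Recombinant human GSK3α was preincubated with compound (stocks 4, 0.4, 0.04 or 0.004 μg/mL) at RT, 2 hr for Method 1 and 105 min for Method 2. FRET peptide (8 μM stock) and ATP (40 μM stock) were added for 1 hr, then protease development for 1 hr. IC50 was taken from concentration–response curves.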
# Sequence of c-Src (P12931 whole entry, looked up): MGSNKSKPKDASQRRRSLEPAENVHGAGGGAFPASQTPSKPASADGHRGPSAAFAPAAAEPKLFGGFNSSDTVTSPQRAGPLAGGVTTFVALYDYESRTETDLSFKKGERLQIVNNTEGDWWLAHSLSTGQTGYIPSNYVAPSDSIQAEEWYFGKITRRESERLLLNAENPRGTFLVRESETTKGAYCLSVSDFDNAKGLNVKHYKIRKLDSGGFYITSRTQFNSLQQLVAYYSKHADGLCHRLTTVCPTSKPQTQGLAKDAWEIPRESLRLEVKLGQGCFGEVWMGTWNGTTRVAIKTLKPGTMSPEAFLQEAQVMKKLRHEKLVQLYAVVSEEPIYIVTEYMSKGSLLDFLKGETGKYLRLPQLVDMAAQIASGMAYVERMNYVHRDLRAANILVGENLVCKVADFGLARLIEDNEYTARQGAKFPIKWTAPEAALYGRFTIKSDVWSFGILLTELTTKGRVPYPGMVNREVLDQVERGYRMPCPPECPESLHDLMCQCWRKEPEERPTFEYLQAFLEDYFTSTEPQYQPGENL
# Sequence of GSK 3α (P49840 whole entry): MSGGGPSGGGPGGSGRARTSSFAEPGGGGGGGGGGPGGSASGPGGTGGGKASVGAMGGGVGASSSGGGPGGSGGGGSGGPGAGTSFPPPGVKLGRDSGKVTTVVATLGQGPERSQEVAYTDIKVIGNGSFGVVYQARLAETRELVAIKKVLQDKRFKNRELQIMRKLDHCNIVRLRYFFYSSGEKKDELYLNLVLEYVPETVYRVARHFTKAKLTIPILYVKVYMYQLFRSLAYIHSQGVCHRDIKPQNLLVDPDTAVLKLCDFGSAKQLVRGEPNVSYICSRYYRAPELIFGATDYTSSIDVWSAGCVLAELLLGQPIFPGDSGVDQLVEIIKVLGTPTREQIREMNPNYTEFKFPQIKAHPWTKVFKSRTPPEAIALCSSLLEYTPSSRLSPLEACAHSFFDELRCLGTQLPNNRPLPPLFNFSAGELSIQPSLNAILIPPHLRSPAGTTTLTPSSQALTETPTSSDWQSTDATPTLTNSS
# Sequence of p38 MAPKα isoform (MAPK14) (Q16539 whole entry, canonical isoform): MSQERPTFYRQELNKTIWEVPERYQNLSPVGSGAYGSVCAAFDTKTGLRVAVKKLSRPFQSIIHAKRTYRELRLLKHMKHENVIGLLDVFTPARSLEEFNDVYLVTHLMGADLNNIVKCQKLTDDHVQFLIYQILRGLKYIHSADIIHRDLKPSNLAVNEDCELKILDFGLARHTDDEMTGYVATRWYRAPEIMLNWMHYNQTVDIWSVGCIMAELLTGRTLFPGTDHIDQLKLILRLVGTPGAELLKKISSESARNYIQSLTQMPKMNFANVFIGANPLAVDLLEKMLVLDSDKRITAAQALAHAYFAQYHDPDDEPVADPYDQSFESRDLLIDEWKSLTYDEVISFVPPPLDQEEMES
SMILES,IC50 (c-Src) [nM],IC50 (PBMCs [1]) [nM],inhibition at 5 µg/mL (PBMCs [2]) [%],IC50 [3] [nM],IC50 (PBMCs [4]) [nM],IC50 (PBMCs [5]) [nM],IC50 (Syk) [nM],IC50 (GSK 3α) [nM]
"COc1cc(Nc2cc(Oc3ccc(NC(=O)Nc4cc(C(C)(C)C)cc(CC(N)=O)c4OC)c4ccccc34)ccn2)cc(S(=O)(=O)C2CC2)c1 [38(ad), 2-(5-(tert-Butyl)-3-(3-(4-((2-((3-(cyclopropylsulfonyl)-5-methoxyphenyl)amino)pyridin-4-yl)oxy)naphthalen-1-yl)ureido)-2-methoxyphenyl)acetamide]",155,10.9,14.5,87,2.2,214,> 1380,11000
"COc1cc(C#N)cc(Nc2cc(Oc3ccc(NC(=O)Nc4cc(C(C)(C)C)cc(CC(N)=O)c4OC)c4ccccc34)ccn2)c1 [38(ah), 2-(5-(tert-Butyl)-3-(3-(4-((2-((3-cyano-5-methoxyphenyl)amino)pyridin-4-yl)oxy)naphthalen-1-yl)ureido)-2-methoxyphenyl)acetamide]",311,10.6,6.7,619,2.3,350,> 1550,13900
"COc1cc(Nc2cc(Oc3ccc(NC(=O)Nc4cc(C(C)(C)C)cc(CC(N)=O)c4OC)c4ccccc34)ccn2)cc(S(=O)(=O)N(C)C)c1 [38(aj), 2-(5-(tert-Butyl)-3-(3-(4-((2-((3-(N,N-dimethylsulfamoyl)-5-methoxyphenyl)amino)pyridin-4-yl)oxy)naphthalen-1-yl)ureido)-2-methoxyphenyl)acetamide]",220,9.6,-1,295,2.1,340,> 1380,> 13200
"COc1cc(Nc2cc(Oc3ccc(NC(=O)Nc4cc(C(C)(C)C)cc(S(C)(=O)=O)c4OC)c4ccccc34)ccn2)cc(C(=O)NCCN2CC[S+]([O-])CC2)c1 [38(an), 3-((4-((4-(3-(5-(tert-Butyl)-2-methoxy-3-(methylsulfonyl)phenyl)ureido)naphthalen-1-yl)oxy)pyridin-2-yl)amino)-5-methoxy-N-(2-(1-oxidothiomorpholino)ethyl)benzamide]",24,8.2,30.1,48,3.8,81.8,99,3600
"COCCOCCOCCNC(=O)c1cc(Nc2cc(Oc3ccc(NC(=O)Nc4cc(C(C)(C)C)cc(CNC(C)=O)c4OC)c4ccccc34)ccn2)cc(OC)c1 [38(y), 3-((4-((4-(3-(3-(Acetamidomethyl)-5-(tert-butyl)-2-methoxyphenyl)ureido)naphthalen-1-yl)oxy)pyridin-2-yl)amino)-5-methoxy-N-(2-(2-(2-methoxyethoxy)ethoxy)ethyl)benzamide]",15,7.9,65.7,21,0.5,28.3,393,867
"COc1cc(Nc2cc(Oc3ccc(NC(=O)Nc4cc(C(C)(C)C)cc(P(C)(C)=O)c4OC)c4ccccc34)ccn2)cc(S(=O)(=O)N(C)CCCN2CCOCC2)c1 [79(d), 1-(5-tert-Butyl-3-dimethylphosphoryl-2-methoxy-phenyl)-3-[4-[[2-[3-methoxy-5-[methyl(3-morpholinopropyl)sulfamoyl]anilino]-4-pyridyl]oxy]-1-naphthyl]urea]",218,14.6,19.9,39,3.9,624,> 1160,3940
"COCCOCCOCCNC(=O)c1cc(Nc2cc(Oc3ccc(NC(=O)Nc4cc(C(C)(C)C)cc([S+](C)[O-])c4OC)c4ccccc34)ccn2)cc(OC)c1 (centres unmarked) [Example 48, 3-((4-((4-(3-(5-(tert-Butyl)-2-methoxy-3-(methylsulfinyl)phenyl)ureido)naphthalen-1-yl)oxy)pyridin-2-yl)amino)-5-methoxy-N-(2-(2-(2-methoxyethoxy)ethoxy)ethyl)benzamide]",37,3.7,35.6,25,0.4,116,> 1230,2670
"COc1c(CC(N)=O)cc(C(C)(C)C)cc1NC(=O)Nc1ccc(Oc2ccnc(Nc3cc(C#N)cc(OCCN4CCOCC4)c3)c2)c2ccccc12 [Example 49, 2-(5-(tert-Butyl)-3-(3-(4-((2-((3-cyano-5-(2-morpholinoethoxy)phenyl)amino)pyridin-4-yl)oxy)naphthalen-1-yl)ureido)-2-methoxyphenyl)acetamide]",39,5.7,43.9,124,0.8,91,> 1340,4510
"COc1c(NC(=O)Nc2ccc(Oc3ccnc(Nc4cc(C#N)cc(OCCN5CCOCC5)c4)c3)c3ccccc23)cc(C(C)(C)C)cc1[S+](C)[O-] (centres unmarked) [Example 51, 1-(5-(tert-Butyl)-2-methoxy-3-(methylsulfinyl)phenyl)-3-(4-((2-((3-cyano-5-(2-morpholinoethoxy)phenyl)amino)pyridin-4-yl)oxy)naphthalen-1-yl)urea]",55,75.2,28,158,1.3,101,> 1340,8710
COc1c(CNC(C)=O)cc(C(C)(C)C)cc1NC(=O)Nc1ccc(Oc2ccnc(Nc3cc(OCCN4CCOCC4)cc(C(F)(F)F)c3)c2)c2ccccc12 [Example 52],235,5.5,46.8,> 1250,2.8,43.5,> 1250,> 12500
"COCCOCCOCCNC(=O)c1cc(Nc2cc(Oc3ccc(NC(=O)Nc4cc(C(C)(C)C)cc(CC(N)=O)c4OC)c4ccccc34)ccn2)cc(OC)c1 [Example 53, 3-((4-((4-(3-(3-(2-Amino-2-oxoethyl)-5-(tert-butyl)-2-methoxyphenyl)ureido)naphthalen-1-yl)oxy)pyridin-2-yl)amino)-5-methoxy-N-(2-(2-(2-methoxyethoxy)ethoxy)ethyl)benzamide]",22,6,22.3,12,1.1,52.5,> 1240,1560
"COc1cc(Nc2cc(Oc3ccc(NC(=O)Nc4cc(C(C)(C)C)cc(S(C)(=O)=O)c4OC)c4ccccc34)ccn2)cc(C(=O)NCCN2CCOCC2)c1 [Example 54, 3-((4-((4-(3-(5-(tert-Butyl)-2-methoxy-3-(methylsulfonyl)phenyl)ureido)naphthalen-1-yl)oxy)pyridin-2-yl)amino)-5-methoxy-N-(2-morpholinoethyl)benzamide]",43,3.7,51.9,63,1.5,37.9,590,> 5020
"COc1cc(Nc2cc(Oc3ccc(NC(=O)Nc4cc(C(C)(C)C)cc([S+](C)[O-])c4OC)c4ccccc34)ccn2)cc(C(N)=O)c1 (centres unmarked) [Example 55, 3-((4-((4-(3-(5-(tert-Butyl)-2-methoxy-3-(methylsulfinyl)phenyl)ureido)naphthalen-1-yl)oxy)pyridin-2-yl)amino)-5-methoxybenzamide]",37,6.2,51.7,38,0.6,31.2,> 692,2480
